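Step 1: Grow cells in 96-well plates. Step 2: Expose to compound for 48 hours at 5 concentrations. Step 3: Interpolate endpoints linearly; if unreached, use highest concentration. GI50: concentration for 50% inhibition of growth. At the TGI there is no net growth.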
Assays:
Assay in all cases: NCI anticancer screen, dose series, 48 h
DMS 114 small cell lung = test system: DMS 114 small cell lung
SNB-78 CNS = test system: SNB-78 CNS
DLD-1 colon = test system: DLD-1 colon
UACC-62 melanoma = test system: UACC-62 melanoma
IGROV1 ovarian = test system: IGROV1 ovarian
UACC-257 melanoma = test system: UACC-257 melanoma
TK-10 renal = test system: TK-10 renal
SK-MEL-2 melanoma = test system: SK-MEL-2 melanoma
CCRF-CEM leukemia = test system: CCRF-CEM leukemia
RPMI-8226 leukemia = test system: RPMI-8226 leukemia
LOX IMVI melanoma = test system: LOX IMVI melanoma
M19-MEL melanoma = test system: M19-MEL melanoma

| Structure (SMILES) | TGI (DMS 114 small cell lung) | TGI (SNB-78 CNS) | TGI (DLD-1 colon) | TGI (UACC-62 melanoma) | TGI (IGROV1 ovarian) | TGI (UACC-257 melanoma) | TGI (TK-10 renal) | TGI (SK-MEL-2 melanoma) | TGI (CCRF-CEM leukemia) | TGI (RPMI-8226 leukemia) | TGI (LOX IMVI melanoma) | GI50 (LOX IMVI melanoma) | GI50 (UACC-62 melanoma) | GI50 (IGROV1 ovarian) | GI50 (UACC-257 melanoma) | GI50 (TK-10 renal) | GI50 (SK-MEL-2 melanoma) | GI50 (CCRF-CEM leukemia) | GI50 (RPMI-8226 leukemia) | TGI (M19-MEL melanoma) |
| --- | --- | --- | --- | --- | --- | --- | --- | --- | --- | --- | --- | --- | --- | --- | --- | --- | --- | --- | --- | --- |
| CS(=O)(=O)OCc1c(O)c2c(c(O)c1COS(C)(=O)=O)C(=O)C=CC2=O | > 100 µM | > 100 µM | > 100 µM | > 100 µM | > 100 µM | > 100 µM | > 100 µM | > 100 µM | > 100 µM | > 100 µM |  |  |  |  |  |  |  |  |  |  |
| CC[N+](CC)(CC)/C(=N/S(=O)(=O)c1cc(C)c(Cl)cc1S)[N-]S(=O)(=O)c1ccc(Cl)cc1 |  |  |  |  | > 100 µM | > 100 µM | > 100 µM | > 100 µM | > 100 µM | > 100 µM | > 100 µM |  |  |  |  |  |  |  |  |  |
| COc1ccc(-n2cc(-c3ccc(OC)c(OC)c3)nc2SCc2ccccc2)cc1Cl |  |  |  | > 100 µM | > 100 µM | 38.3 µM | > 100 µM | 56.3 µM | 31.2 µM | 20 µM | > 100 µM | 34.7 µM | 20.8 µM | 12.9 µM | 7.23 µM | 29.5 µM | 16.3 µM | 0.857 µM | 4.38 µM |  |
| CC(O)=NC(Cc1ccc2ccccc2c1)C(O)=NC(Cc1ccc(Cl)cc1)C(O)=NC(Cc1c[nH]c2ccccc12)C(O)=NC(CO)C(O)=NC(Cc1ccc(O)cc1)C(O)=NC(CCCN=C(N)N)C(O)=NC(CC(C)C)C(O)=NC(CCCN=C(N)N)C(=O)N1CCCC1C(O)=NC(C)C(=N)O (centres undefined) |  |  |  | > 100 µM | > 100 µM | > 100 µM | > 100 µM | 90.9 µM | > 100 µM | > 100 µM |  |  |  |  |  |  |  |  |  |  |
| C[C@]12CC[C@H](O)CC1=CC[C@@H]1[C@@H]2CC[C@]2(C)C(=O)CC[C@@H]12 |  |  |  | > 100 µM |  | > 100 µM | > 100 µM | > 100 µM |  | > 100 µM | > 100 µM |  |  |  |  |  |  |  |  |  |
| CCCc1ccc(OCC(=O)N/N=C/c2c(-c3ccccc3)[nH]c3ccccc23)cc1 |  |  |  | 26.3 µM | 65.8 µM | 33.7 µM | 63.8 µM | 15.3 µM | 40.1 µM | 30.7 µM | 21.6 µM |  |  |  |  |  |  |  |  |  |
| O=C(/N=C/c1c(O)c2ccccc2oc1=O)NC1CCCCC1 | > 100 µM | > 100 µM |  | > 100 µM | > 100 µM | > 100 µM | > 100 µM | > 100 µM |  | > 100 µM | > 100 µM |  |  |  |  |  |  |  |  | > 100 µM |
| CO[C@]12C[C@H](CNC(=O)c3cc(Br)c(Br)[nH]3)O[C@H]1NC(=O)N2 |  |  |  | > 100 µM | > 100 µM | > 100 µM | > 100 µM | > 100 µM | > 100 µM | > 100 µM | > 100 µM |  |  |  |  |  |  |  |  |  |
| NC1=NS(=O)(=O)Nc2nc(-c3cccs3)[nH]c21 |  |  | > 100 µM | > 100 µM | > 100 µM |  | > 100 µM | > 100 µM | > 100 µM | > 100 µM | > 100 µM |  |  |  |  |  |  |  |  | > 100 µM |
| C[n+]1c(-c2ccc(/C=N\NC(=O)c3ccc(C(=O)N/N=C/c4ccc(-c5cn6ccsc6[n+]5C)cc4)cc3)cc2)cn2ccsc21 |  |  |  | 47.1 µM | 40.7 µM | 54.9 µM | 40.3 µM | 75.6 µM | > 100 µM | 55 µM |  |  |  |  |  |  |  |  |  |  |
| COc1c2ccoc2c(S(=O)(=O)Nc2ccc(Cl)cc2)c2oc(C)cc(=O)c12 | > 100 µM | > 100 µM | > 100 µM | > 100 µM | > 100 µM | > 100 µM |  | > 100 µM | > 100 µM | > 100 µM | > 100 µM |  |  |  |  |  |  |  |  | > 100 µM |

— PubChem BioAssay (NCI)
